Test results taken from patent US7285687B2 (priority 2002, dated 2007).
Like-named read-outs stand apart in the source and are kept apart here.

Key:
male ICR mice [1] = assay: Change in rectal temperature (RT) in mice, i.v.; assay type: in vivo, mouse; conditions: for R.T. effect at dose: @ 30 mg/kg; for ED50: Mus musculus, iv
Description: (§1) Male ICR mice (25-32 g), obtained from Harlan (Dublin, Va.), were housed in groups of five. All animals were kept in a temperature-controlled (20-22° C.) environment with a 12-hour light-dark cycle (lights on at 7 a.m.). Separate mice were used for testing each drug dose in the in vivo behavioral procedures. Brain tissue for binding studies was obtained from male Sprague-Dawley rats (150-200 g) purchased from Harlan Laboratories (Dublin, Va.).
(§2) Measurement of spontaneous activity in mice occurred in standard activity chambers interfaced with a Digiscan Animal Activity Monitor (Omnitech Electronics, Inc., Columbus, Ohio). A standard tail-flick apparatus and a digital thermometer (Fisher Scientific, Pittsburgh, Pa.) were used to measure antinociception and rectal temperature, respectively.
(§3) Resorcinols were synthesized in our labs (Organix, Inc., Woburn, Mass.) according to the procedure specified below and were suspended in a vehicle of absolute ethanol, Emulphor-620 (Rhone-Poulenc, Inc., Princeton, N.J.), and saline in a ratio of 1:1:18. Drugs were administered to the mice intravenously (i.v.) in the tail vein at a volume of 0.1 ml/10 g.
(§4) Prior to testing in the behavioral procedures, mice were acclimated to the experimental setting (ambient temperature 22-24° C.) overnight. Pre-injection control values were determined for rectal temperature and tail-flick latency (in sec). Five min after i.v. injection with drug or vehicle, mice were placed in individual activity chambers and spontaneous activity was measured for 10 min. […] Tail-flick latency was measured at 20 min post-injection. Maximum latency of 10 sec was used. Antinociception was calculated as percent of maximum possible effect {% MPE=[(test−control latency)/(10-control)]×100}. Control latencies typically ranged from 1.5 to 4.0 sec. At 30 min post-injection, rectal temperature was measured. This value was expressed as the difference between control temperature (before injection) and temperatures following drug administration (° C.). Different mice (n=5-6 per dose) were tested for each dose of each compound. Each mouse was tested in each of the 3 procedures.
(§5) Based on data obtained from numerous previous studies with cannabinoids, maximal cannabinoid effects in each procedure were estimated as follows: 90% inhibition of spontaneous activity, 100% MPE in the tail flick procedure, and −6° C. change in rectal temperature. ED50's were defined as the dose at which half maximal effect occurred. For drugs that produced one or more cannabinoid effect, ED50's were calculated separately using least-squares linear regression on the linear part of the dose-effect curve for each measure in the mouse tetrad, plotted against log10 transformation of the dose. For the purposes of potency comparison, potencies were expressed as μmol/kg.

male ICR mice [2] = assay: Tail-flick antinociception (TF, % MPE) in mice, i.v.; assay type: in vivo, mouse; conditions: for inhibition in vivo at 30 mg/kg / ED50: Mus musculus, iv; for inhibition in vivo at 30 mg/kg: Table 6, read-out: T.F. % effect at dose; for inhibition in vivo at 30 mg/kg / T.F. % effect at dose: @ 30 mg/kg
Description: as §1, §2, §3, §4, §5

CB2 receptor = biological target: T1, CB2 receptor (Homo sapiens, UniProt P34972); assay: CB2 binding procedure, displacement of [3H]CP-55,940 from membranes of transfected CHO cells; conditions: for CB1/CB2: ratio of CB1 Ki to CB2 Ki
T1 construct: expressed in transfected cells
Description: Membranes for CB2 binding were obtained from CHO cells. The transfected cell line was maintained in Dublecco's Modified Eagle Medium (Gibco BRL, Grand Island, N.Y.) with 10% fetal clone II (HyClone Laboratories, Inc., Logan, Utah) plus 0.3 to 0.5 mg/ml G418 (to maintain selective pressure) under 5% CO2 at 37% C. Cells were harvested with 1 mM EDTA in phosphate-buffered saline and were centrifuged at 1000×g for 5 min at 4% C. The supernatant was saved and the P1 pellet was resuspended in centrifugation buffer. Homogenization and centrifugation were repeated twice and the combined supernatant fractions were centrifuged at 40,000×g for 30 min at 4% C. The P2 pellet was resuspended in centrifugation buffer 2 (Tris HCl, 50 mM; EDTA, 1 mM; and MgCl2, 3 mM, pH 7.4) to a protein concentration of approximately 2 mg/ml. Protein concentrations were determined by the method of Bradford (1976) using Bio-Rad Protein Assay (Bio-Rad, Richmond, Calif.) and BSA standards (fatty acid free, Sigma Chemical Co., St. Louis, Mo.). The membrane preparation was divided into amounts convenient for binding assays and frozen rapidly in dry ice and stored at −80% C.
Binding was initiated by the addition of 50•g of quickly thawed P2 membranes to test tubes containing [^3H]CP-55,940 (final reaction concentration 0.5 nM), an appropriate concentration of unlabeled CP-55,940 or test drug, and sufficient quantity of assay buffer (50 mM Tris-HCl, 1 mM EDTA, 3 mM MgCl2, 5 mg/ml bovine serum albumin, pH 7.4) to bring the total incubation volume to 0.5 ml. Concentration of [^3H]CP-55,940 in saturation studies ranged from 50 to 10,000 pM. […] CP-55,940 and all cannabinoid analogs were-prepared by suspension in assay buffer from a 1 mg/ml ethanolic stock without evaporation of the ethanol (final concentration of no more than 0.4%). In competition studies, analog concentrations ranged from 0.1 nM to 10•M. After incubation at […] for 1 hr, binding was terminated by the addition of 2 ml of ice-cold wash buffer (50 mM Tris-HCl and 1 mg/ml BSA) and vacuum filtration through pre-treated filters in a 12-well sampling manifold (Millipore, Bedford, Mass.). Reaction vessels were washed once with 2 ml of ice-cold wash buffer. Filters were placed into 7-ml plastic scintillation vials (RPI Corp., Mount Prospect, Ill.) with 4 ml of Budget-Solve (RPI Corp.). After shaking for 30 min, the radioactivity present was determined by liquid scintillation spectrometry. Three reaction vessels were used for each drug concentration in each assay. The results represent the combined data of three independent experiments. All assays were performed in siliconized test tubes, which were prepared by air drying (12 hr) inverted borosilicate tubes after two rinses with a 0.1% solution of AquaSil (Pierce, Rockford, Ill.). The GF/C glass-fiber filters (2.4 cm, Baxter, McGaw Park, Ill.) were pre-treated in a 0.1% solution of pH 7.4 polyethylenimine (Sigma Chemical Co.) for at least 6 hr.
(§6) In addition, multiple linear regression was used to calculate the overall degree of relationship between CB1 binding affinity and potency in the mouse measures for all active cannabinoids. […] Ki values for CB1 and CB2 binding were obtained from Scatchard displacement analysis as determined via EBDA program of the KELL software package (Biosoft, Milltown, N.J.).

CB1 receptor = biological target: T2, CB1 receptor (Rattus norvegicus, UniProt P20272); assay: CB1 binding procedure, displacement of [3H]CP 55,940 from rat whole-brain P2 membranes
T2 construct: whole brain was homogenized and centrifuged; from tissue; host or cells: whole brain of male Sprague-Dawley rats, P2 membrane fraction
Description: as §1
The methods used for tissue preparation and binding have been described previously (Compton et al., 1993) and are similar to those described by Devane et al. (1988). All assays, as described briefly below, were performed in triplicate, and the results represent the combined data from three to six individual experiments.
Following decapitation and rapid removal of the brain, whole brain was homogenized and centrifuged. The resulting pellet was termed P1. The supernatant was saved and combined with the two subsequent supernatants obtained from washing of the P1 pellet. The combined supernatant fractions were centrifuged, resulting in the P2 pellet. After further incubation and centrifuging, this pellet was resuspended in assay buffer to a protein concentration of approximately 2 mg/ml. The membrane preparation was quickly frozen in a bath solution of dry ice and 2-methylbutane (Sigma Chemical Co., St. Louis, Mo.), then stored at −80° C. for no more than 2 weeks. Prior to performing a binding assay an aliquot of frozen membrane was rapidly thawed and protein values determined by the method of Bradford (1976).
Binding was initiated by the addition of 150•g of P2 membrane to test tubes containing 1 nM of [^3H] CP 55,940 (79 Ci/mmol) and a sufficient quantity of buffer to bring the total incubation volume to 1 ml. […] Following incubation at 30° C. for 1 hr, binding was terminated by addition of ice cold buffer and vacuum filtration through pretreated filters in a 12-well sampling manifold (Millipore, Bedford, Mass.). After washing, filters were placed into plastic scintillation vials (Packard, Downer Grove, Ill.) and shaken. The quantity of radioactivity present was determined by liquid scintillation spectrometry.
as §6

male ICR mice [3] = assay: Suppression of spontaneous activity (SA) in mice, i.v.; assay type: in vivo, mouse; conditions: for ED50: Mus musculus, iv
Description: as §1, §2, §3, §4, §5

[4] = 95% confidence limits in parentheses, read-out: ED50 RT (rectal temperature)
[5] = 95% confidence limits in parentheses, read-out: ED50 SA (suppression of spontaneous activity)
[6] = 95% confidence limits in parentheses, read-out: ED50 TF (antinociception in tail flick assay)
[7] = mean ± SEM, [3H]CP-55,940, transfected CHO cell membranes, read-out: Ki(nM) CB2
[8] = mean ± SEM, [3H]CP 55,940, rat brain membranes, read-out: Ki(nM) CB1

T2 sequence (P20272 whole entry): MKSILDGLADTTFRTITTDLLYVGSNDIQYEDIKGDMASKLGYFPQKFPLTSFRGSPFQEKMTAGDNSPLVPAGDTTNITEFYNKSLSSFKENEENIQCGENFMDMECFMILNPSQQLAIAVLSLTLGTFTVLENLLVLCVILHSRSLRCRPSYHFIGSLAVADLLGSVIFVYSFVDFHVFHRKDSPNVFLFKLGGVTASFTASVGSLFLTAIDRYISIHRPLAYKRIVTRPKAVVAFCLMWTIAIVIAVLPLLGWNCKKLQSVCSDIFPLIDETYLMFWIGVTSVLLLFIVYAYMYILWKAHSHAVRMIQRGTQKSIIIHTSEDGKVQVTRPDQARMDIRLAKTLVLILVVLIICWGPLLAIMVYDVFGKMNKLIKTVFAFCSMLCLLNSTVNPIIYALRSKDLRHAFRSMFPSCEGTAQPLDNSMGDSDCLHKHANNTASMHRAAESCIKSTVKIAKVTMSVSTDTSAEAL
T1 sequence (P34972 whole entry): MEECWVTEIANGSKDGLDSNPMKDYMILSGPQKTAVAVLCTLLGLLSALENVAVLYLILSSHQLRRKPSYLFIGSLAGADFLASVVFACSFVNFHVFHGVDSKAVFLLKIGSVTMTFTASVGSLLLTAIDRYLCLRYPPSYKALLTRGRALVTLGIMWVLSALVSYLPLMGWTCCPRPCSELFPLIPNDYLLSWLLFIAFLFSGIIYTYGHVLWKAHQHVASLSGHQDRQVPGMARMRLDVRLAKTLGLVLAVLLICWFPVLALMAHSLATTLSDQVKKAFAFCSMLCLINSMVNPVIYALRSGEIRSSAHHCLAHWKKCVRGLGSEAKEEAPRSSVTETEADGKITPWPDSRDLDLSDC

## C=C(C)[C@@H]1CCC(C)=CC1c1c(C)cc(O)cc1O (single isomer, unassigned; (-)) [O-1602]
Male ICR mice [1]; Table 6
  R.T. effect at dose: 0.3 @ 30 °C
Male ICR mice [2]
  inhibition in vivo at 30 mg/kg: 0%
CB2 receptor; Table 6, read-out: CB2 KI
  Ki: > 10000 nM
CB1 receptor; Table 6, read-out: CB1 KI
  Ki: > 10000 nM

## C=C(C)[C@@H]1CCC(C)=CC1c1c(O)cc(C)cc1O (single isomer, unassigned; (-)) [O-1821, (-)-2-(3-3,4-trans-p-menthadien-(1,8)-yl)-orcinol]
Male ICR mice [3]; @ 30 mg/kg, Table 6
  S.A. % effect at dose: 0 @ 30%
Male ICR mice [2]
  inhibition in vivo at 30 mg/kg: 3%
CB1 receptor; Table 6, read-out: CB1 KI
  Ki: > 10000 nM

## CCCCCCC(C)(C)c1cc(OC)c(C2(O)CCCC(C)C2)c(OC)c1 (single isomer, unassigned; isomer 1) [O-1966A, 1-[4-(1,1-Dimethyl-heptyl)-2,6-dimethoxy-phenyl]-3-methyl-cyclohexanol isomer 1]
Male ICR mice [1]; Table 6, 30 mg/kg
  R.T. effect at dose: 0.5 @ 30 °C
CB2 receptor
  CB1/CB2: 220

## CCCCCCC(C)(C)c1cc(OC)c(C2(O)CCCC(C)C2)c(OC)c1 (single isomer, unassigned; isomer 2) [O-1967B, 1-[4-(1,1-Dimethyl-heptyl)-2,6-dimethoxy-phenyl]-3-methyl-cyclohexanol isomer 2]
Male ICR mice [1]; Table 6, 30 mg/kg
  R.T. effect at dose: 0 @ 30 °C
Male ICR mice [2]; Table 6, 30 mg/kg
  T.F. % effect at dose: 8.2% @30
CB2 receptor
  CB1/CB2: 15

## CCCCCCC(C)(C)c1ccc(-c2cc(C)ccc2C(C)C)c(O)c1 [O-1376, 3-1′,1′-Dimethylhepty-6-(2-isopropyl-5-methylphenyl)phenol]
Male ICR mice [1]; [4]
  ED50: 23 µmol/kg
CB2 receptor; Table 6, read-out: CB2 KI
  Ki: 2.63 ± 0.36 nM
CB2 receptor
  CB1/CB2: 11

## CCCCCCC(C)(C)c1cc(O)c(C2CCCCCC2)c(O)c1 [O-1656, 2-Cycloheptyl-5-(1′,1′-dimethyl-heptyl)-resorcinol]
Male ICR mice [3]; [5]
  ED50: 1.5 µmol/kg
Male ICR mice [3]; Table 6, read-out: S.A. ED50
  ED50: 0.53 mg/kg
Male ICR mice [1]; [4]
  ED50: 0.6 µmol/kg
Male ICR mice [1]; Table 6, read-out: R.T. ED50
  ED50: 0.21 mg/kg
Male ICR mice [2]; [6]
  ED50: 1.2 µmol/kg
Male ICR mice [2]; Table 6, read-out: T.F. ED50
  ED50: 0.39 mg/kg
CB2 receptor; Table 6, read-out: CB2 KI
  Ki: 2.12 ± 0.25 nM
CB2 receptor; [7]
  Ki: 2 ± 0.2 nM
CB2 receptor
  CB1/CB2: 9
CB1 receptor; Table 6, read-out: CB1 KI
  Ki: 17.8 ± 1.4 nM
CB1 receptor; [8]
  Ki: 18 ± 1 nM

## CCCCCCC(C)(C)c1cc(O)c(C2CCSC2)c(O)c1 (stereo not shown) [O-1661, 2-(Tetrahydrothiophen-3-yl)-5-(1′,1′-dimethylheptyl)-resorcinol]
Male ICR mice [3]; Table 6, read-out: S.A. ED50
  ED50: 7.65 mg/kg
CB2 receptor
  CB1/CB2: 5

## CCCCCCC(C)(C)c1cc(O)c(C2CCCC(C)(C)C2)c(O)c1 (stereo not shown) [O-1871]
Male ICR mice [3]; [5]
  ED50: < 1 µmol/kg
Male ICR mice [3]; Table 6, read-out: S.A. ED50
  ED50: 0.04 mg/kg
Male ICR mice [1]; [4]
  ED50: 1.3 µmol/kg
Male ICR mice [1]; Table 6, read-out: R.T. ED50
  ED50: 0.37 mg/kg
Male ICR mice [2]; [6]
  ED50: 2.3 µmol/kg
Male ICR mice [2]; Table 6, read-out: T.F. ED50
  ED50: 0.7 mg/kg
CB2 receptor; Table 6, read-out: CB2 KI
  Ki: 0.3 ± 0.01 nM
CB2 receptor; [7]
  Ki: 0.3 ± 0.01 nM
CB2 receptor
  CB1/CB2: 7
CB1 receptor; Table 6, read-out: CB1 KI
  Ki: 2.3 ± 0.32 nM
CB1 receptor; [8]
  Ki: 2 ± 0.3 nM

## CCCCCCc1ccc(O)c(C2CCCCC2)c1O [O-2010, 2-Cyclohexyl-4-hexyl resorcinol]
Male ICR mice [2]; Table 6
  T.F. % effect at dose: 9.0%@ 30

## CCCCCCC(C)(C)c1cc(OC)c(C2(O)CC(=O)CC(C)C2)c(OC)c1 (stereo not shown) [O-2123, 3-[4-(1,1-Dimethyl-heptyl)-2,6-dimethoxy-phenyl]-3-hydroxy-5-methyl-cyclohexanone]
CB2 receptor
  CB1/CB2: 14
CB1 receptor; Table 6, read-out: CB1 KI
  Ki: 7330 ± 117 nM

## COc1cc(C)cc(OC)c1C1(O)CCCCC1 [O-2298, 1-(2,6-Dimethoxy-4-methyl-phenyl)-cyclohexanol]
CB2 receptor; Table 6, read-out: CB2 KI
  Ki: > 10000 nM
CB1 receptor; Table 6, read-out: CB1 KI
  Ki: > 10000 nM

## COc1cc(C)cc(OC)c1C1CCCCC1 [O-2299, 2-Cyclohexyl-1,3-dimethoxy-5-methylbenzene]
CB2 receptor; Table 6, read-out: CB2 KI
  Ki: > 10000 nM
CB1 receptor; Table 6, read-out: CB1 KI
  Ki: > 10000 nM
